From publication PMC12006171, “Marsupial cathelicidins: characterization, antimicrobial activity and evolution in this unique mammalian lineage” (Frontiers in Immunology, 2025) come the findings set out here.

What all share (format): cell-based
Assay [1] relates to Streptococcus agalactiae Clinical isolate - animal. As to the kind of experiment: microbe, parasite or virus in culture. To be noted: clinical isolate - animal; read-out: MIC S. agalactiae. The method, then: (§1) Antimicrobial testing of 78 cathelicidin MPs was performed in two phases as outlined in Figure 1 . In phase I, 40 peptides (27 extant and 13 ancestral) were selected for testing based on rank (outlined above) and similarity to published marsupial cathelicidins with known antimicrobial activity ([33], [41]–[43]). These peptides were tested against nine bacteria (Staphylococcus aureus ATCC 29213 and clinical isolate, Escherichia coli ATCC 25922 and clinical isolate, Pseudomonas aeruginosa ATCC 27853 and clinical isolate, Streptococcus agalactiae ATCC 12386 and clinical isolate, Streptococcus pneumoniae ATCC 49619) and three fungi (Candida krusei ATCC 6258, Candida parapsilosis ATCC 22019, and Candida albicans clinical isolate). Details regarding these strains are available in Supplementary Table 4 . The antimicrobial activity of cathelicidins was determined as the minimum inhibitory concentration (MIC), which was the lowest concentration of cathelicidin that prevented visible bacterial or fungal growth, relative to the negative control. […] Minimum bactericidal concentration (MBC) and/or minimum fungicidal concentration (MFC) was conducted to determine microbicidal versus static action. Activity against S. aureus ATCC, E. coli ATCC, and Pseudomonas aeruginosa ATCC 27853 was examined in the presence of divalent cations to determine the impact of inhibitors.
(§2) Antimicrobial activity was determined using a broth microdilution susceptibility assay in 96 well polypropylene plates according to Clinical Laboratory Standards Institute guidelines M07-A and M26A as described previously ([33], [42], [43]). The bacterial and fungal isolates from humans and animals used in this study are outlined in Supplementary Table 4 . Only yeasts were included in the panel of fungi as they have been used in the susceptibility testing of eutherian ([3], [81]–[83]) and other marsupial cathelicidins previously ([33], [42], [43]). Cathelicidin mature peptides were solubilized in DMSO and serially diluted in duplicate from 128-0.25μg/mL in a final volume of 100µL. For bacteria, cathelicidins were diluted in Mueller Hinton Broth (MHB) with or without 10% lysed horse blood, and with (MH II B) or without (MHB) calcium and magnesium cations. For fungi, cathelicidins were diluted in Roswell Park Memorial Institute medium (RPMI)-1640 MOPS. Ampicillin or tetracycline were included as a positive control for Gram-positive and -negative bacteria respectively, while amphotericin B was used for fungi. A media-only negative control and growth control (no cathelicidin) were also included on each plate. Bacteria were sub-cultured on Muller Hinton agar (MHA) or sheep blood agar (BA), and fungi on Sabouraud dextrose agar (SAB), 20–24 hours prior to the test. Colonies were suspended in saline, the concentration adjusted to a 0.5 McFarland standard, and then diluted in media to a concentration of 1.0 x 10^6 cells/mL. Then, 100μL was added to each well of the cathelicidin dilution plate, giving a final inoculum density of 5 x 10^5 CFU/mL and cathelicidin concentration of 64-0.125μg/mL. Colony counts were performed on MHA/BA/SAB to confirm inoculum density. All plates were incubated at 35°C for 20–24 hours, depending on the strain.
(§3) Colonies were counted and compared to the colony count of the starting inoculum.

Assay [2] deals with Streptococcus agalactiae ATCC 12386. As to the kind of experiment: microbe, parasite or virus in culture. The conditions noted are these: ATCC 12386; read-out: MIC S. agalactiae ATCC. The method, then:
as §1, §2, §3

In assay [3] the test system is Streptococcus pneumoniae ATCC 49619. As to the kind of experiment: microbe, parasite or virus in culture. The conditions noted are these: ATCC 49619; read-out: MIC S. pneumoniae ATCC. Here is the method: as §1, §2, §3
The subject of assay [4] is Pseudomonas aeruginosa ATCC 27853. As to the kind of experiment: microbe, parasite or virus in culture. To be noted: ATCC 27853. The method, boiled down:
(§4)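 MIC read visually as the lowest peptide concentration with no growth versus negative control, after 20–24 h at 35°C. Peptides were tested in duplicate 64-0.125μg/mL (final) in MHB or cation-supplemented MH II B, some with 10% lysed horse blood; inoculum 5 x 10^5 CFU/mL.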

Assay [5] has as its system Escherichia coli ATCC 25922. As to the kind of experiment: microbe, parasite or virus in culture. The conditions noted are these: ATCC 25922. In short, it runs like this: as §4
Assay [6] has as its system Pseudomonas aeruginosa clinical isolate - animal. Kind of assay: microbe, parasite or virus in culture. To be noted: clinical isolate - animal. In short, it runs like this:
as §4

The test system of assay [7] is Escherichia coli clinical isolate - animal. Kind of assay: microbe, parasite or virus in culture. To be noted: clinical isolate - animal. In short, it runs like this: as §4
The subject of assay [8] is Staphylococcus aureus ATCC 29213. Kind of assay: microbe, parasite or virus in culture. To be noted: ATCC 29213. The method, boiled down: as §4
Assay [9] deals with Staphylococcus aureus clinical isolate - animal. Kind of assay: microbe, parasite or virus in culture. To be noted: clinical isolate - animal; for MIC: read-out: MIC S. aureus. In short, it runs like this:
as §4

Assay [10] relates to Staphylococcus aureus clinical isolate – animal, methicillin-resistant (MRSA). The conditions noted are these: clinical isolate – animal, methicillin-resistant. The method, then:
as §1, §2, §3

Assay [11] deals with Staphylococcus aureus clinical isolate – animal, penicillin-resistant (PRSA). To be noted: clinical isolate – animal, penicillin-resistant (PRSA). Here is the method:
as §1, §2, §3

Assay [12] concerns six bacteria (S. aureus, E. coli, P. aeruginosa; ATCC and clinical isolate). The method, then: as §1
In phase II, the remaining 38 peptides (37 extant and one ancestral) were tested against six bacteria (S. aureus ATCC and clinical isolate, E. coli ATCC and clinical isolate, and P. aeruginosa ATCC and clinical isolate). […] No further testing on phase II peptides was performed. Detailed methods for all assays are provided in subsequent sections.
as §2, §3

Setting [13] is: read-out: MIC P. aeruginosa ATCC.
Setting [14] is: read-out: MIC in the presence of cations E. coli ATCC.

≈ marks a conversion by molar mass, not a printed value. Where two headings read alike, the source gives them in different places. Where a SMILES comes first, the peptide text is derived from it. Where no end group is shown, it is not given here.

For `CC[C@H](C)[C@H](NC(=O)[C@H](CC(C)C)NC(=O)[C@H](CCCCN)NC(=O)[C@H](C)NC(=O)[C@H](CC(C)C)NC(=O)[C@H](CO)NC(=O)[C@H](CCCNC(=N)N)NC(=O)[C@@H](N)C(C)C)C(=O)N[C@@H](Cc1ccc(O)cc1)C(=O)N[C@@H](CCC(N)=O)C(=O)N[C@@H](CCCCN)C(=O)N[C@@H](Cc1ccc(O)cc1)C(=O)N[C@@H](CCCNC(=N)N)C(=O)N[C@@H](CCC(N)=O)C(=O)N[C@@H](CC(C)C)C(=O)N[C@@H](CC(C)C)C(=O)N[C@@H](CC(=O)O)C(=O)N[C@@H](CCCCN)C(=O)N[C@@H](Cc1ccc(O)cc1)C(=O)N[C@H](C(=O)N[C@H](C(=O)N[C@@H](CC(C)C)C(=O)N[C@@H](CCCNC(=N)N)C(=O)N[C@@H](CC(N)=O)C(=O)NCC(=O)N[C@@H](Cc1ccc(O)cc1)C(=O)N[C@@H](CCCCN)C(=O)N[C@@H](CCCCN)C(=O)N[C@@H](CC(C)C)C(=O)N[C@@H](CCC(N)=O)C(=O)N[C@@H](CC(=O)O)C(=O)N[C@H](C(=O)N[C@@H](Cc1ccccc1)C(=O)N[C@@H](CO)C(=O)N[C@@H](CCCCN)C(=O)N[C@@H](CCC(N)=O)C(=O)N[C@H](C(=O)NCC(=O)N[C@@H](CO)C(=O)O)C(C)C)[C@@H](C)CC)[C@@H](C)CC)[C@@H](C)O` [MacroCath8] (H-VRSLAKLIYQKYRQLLDKYTILRNGYKKLQDIFSKQVGS-OH), the MIC in assay [1], in assay [2], in assay [3], in [4] (setting [13]), in assay [5] (read-out: MIC E. coli ATCC) and in assay [6] (read-out: MIC P. aeruginosa) was above 13.6 µM each time. Besides, the MIC in assay [8] (read-out: MIC S. aureus ATCC) and in assay [9] was above 13.6 µM throughout. Moreover, the “MIC E. coli” value in [7] is 13.6 (>13.6)^13.6 µM. Besides, the “MIC in the presence of cations E. coli” value in assay [7] is recorded as 13.6 (>13.6)^13.6 µM.

Compound `CC[C@H](C)[C@H](NC(=O)[C@H](CCC(N)=O)NC(=O)[C@H](Cc1ccccc1)NC(=O)[C@H](CC(N)=O)NC(=O)[C@H](CCCCN)NC(=O)[C@H](CC(C)C)NC(=O)[C@H](CCCNC(=N)N)NC(=O)[C@H](CCCCN)NC(=O)[C@H](CCCCN)NC(=O)[C@@H](NC(=O)[C@H](CO)NC(=O)[C@H](CCCCN)NC(=O)CNC(=O)[C@H](CC(C)C)NC(=O)[C@H](CCCCN)NC(=O)[C@H](CCCCN)NC(=O)[C@H](CC(C)C)NC(=O)[C@H](CCCCN)NC(=O)[C@H](CCCCN)NC(=O)[C@H](CCCNC(=N)N)NC(=O)[C@H](CC(C)C)NC(=O)CNC(=O)[C@@H](N)CCCNC(=N)N)[C@@H](C)CC)C(=O)NCC(=O)N[C@@H](Cc1ccccc1)C(=O)N[C@@H](CO)C(=O)N[C@H](C(=O)N1CCC[C@H]1C(=O)N[C@@H](Cc1ccccc1)C(=O)N[C@@H](C)C(=O)NCC(=O)O)C(C)C` [PegaCath4] (H-RGLRKKLKKLGKSIKKRLKNFQIGFSVPFAG-OH) had an MBC MRSA in assay [10] above 18 µM. This compound also returned an MIC MRSA in [10] of 18 µM (≈ 63.8 µg/mL). The “MBC PRSA” value in assay [11] is above 18 µM. In assay [11], the “MIC PRSA” value is given as 4.5 µM (≈ 15.9 µg/mL). Also, the MIC in assay [1] was above 18 µM; in [2] it was above 18 µM; in [3], above 18 µM; in [4] (setting [13]), 2.2 µM (≈ 7.8 µg/mL); in [4] (read-out: MIC in the presence of cations P. aeruginosa ATCC), 2.2 µM; in assay [5] (read-out: MIC E. coli ATCC), 1.1 µM (≈ 3.9 µg/mL). Besides, the MIC is 1.1 µM in [5] (setting [14]); 2.2 µM (≈ 7.8 µg/mL) in [6] (read-out: MIC P. aeruginosa); 2.2 µM in [6] (read-out: MIC in the presence of cations P. aeruginosa); 1.1 µM (≈ 3.9 µg/mL) in [7]; 9 µM (≈ 31.9 µg/mL) in assay [8] (read-out: MIC S. aureus ATCC); 18 µM in [8] (read-out: MIC in the presence of cations S. aureus ATCC). In addition, in assay [4], the “MBC P. aeruginosa ATCC” value amounted to 4.5 µM (≈ 15.9 µg/mL). Besides, in assay [5], the “MBC E. coli ATCC” value was 2.2 µM (≈ 7.8 µg/mL). Also, the “MBC P. aeruginosa” value in assay [6] is on record as 4.5 µM (≈ 15.9 µg/mL). Besides, the “MBC E. coli” value in assay [7] was 1.1 µM (≈ 3.9 µg/mL). Also, the “MIC S. aureus” value in assay [9] is 18 (>18)^18 µM. The “MIC in the presence of cations S. aureus” value in assay [9] is listed as 18 (>18)^18 µM. For the same compound, in [12], the “MIC against at least one strain” value was 4 µg/mL (≈ 1.13 µM).

As for `CC[C@H](C)[C@H](NC(=O)CNC(=O)[C@H](CCC(=O)O)NC(=O)[C@H](CCC(N)=O)NC(=O)[C@@H](NC(=O)[C@H](CCCCN)NC(=O)[C@H](CC(N)=O)NC(=O)[C@H](CCCCN)NC(=O)[C@@H](NC(=O)[C@H](CC(C)C)NC(=O)[C@H](CC(N)=O)NC(=O)CNC(=O)[C@H](CC(C)C)NC(=O)[C@H](CCCCN)NC(=O)[C@H](CCCNC(=N)N)NC(=O)[C@H](CC(C)C)NC(=O)CN)[C@@H](C)CC)[C@@H](C)CC)C(=O)N[C@@H](CCC(=O)O)C(=O)N[C@@H](Cc1c[nH]cn1)C(=O)N[C@@H](Cc1ccccc1)C(=O)N[C@@H](Cc1ccccc1)C(=O)NCC(=O)N[C@@H](CCCNC(=N)N)C(=O)N[C@@H](CCCNC(=N)N)C(=O)O` [SmcrCath6] (H-GLRKLGNLIKNKIQEGIEHFFGRR-OH), the MIC in [1] is above 22.6 µM; in assay [2], above 22.6 µM; in assay [3], above 22.6 µM; in assay [4] (setting [13]), above 22.6 µM; in assay [5] (read-out: MIC E. coli ATCC), 11.3 µM (≈ 31.9 µg/mL); in assay [5] (setting [14]) it was 22.6 µM. In addition, the MIC in assay [6] (read-out: MIC P. aeruginosa), in assay [7], in assay [8] (read-out: MIC S. aureus ATCC) and in [9] was above 22.6 µM in each case. The “MBC E. coli ATCC” value in assay [5] is 22.6 µM (≈ 63.8 µg/mL).

Take “KVKRGLWDSVKKKVSKFRNSIRRRVTSFKIGAADIRKGYSVA [BepeCath7]”: the MIC is above 13.2 µM in assay [1]; above 13.2 µM in assay [2]; above 13.2 µM in assay [3]; above 13.2 µM in [4] (setting [13]); 6.6 µM in [5] (read-out: MIC E. coli ATCC); 6.6 µM in assay [5] (setting [14]). Also, the MIC in assay [6] (read-out: MIC P. aeruginosa) was above 13.2 µM; in assay [7] it was 6.6 µM; in assay [8] (read-out: MIC S. aureus ATCC), above 13.2 µM; in [9] it was above 13.2 µM. The “MBC E. coli ATCC” value in assay [5] came to 13.2 µM. In addition, the “MBC E. coli” value in assay [7] is reported as 13.2 µM. Moreover, the “MIC in the presence of cations E. coli” value in assay [7] stood at 6.6 µM.
